Reference: patent US20230340011A1 (Asteroid Therapeutics, priority 2022, published 2023)

Experiments:
[1] = biological target: SREBP-2 (Homo sapiens (Human), UniProt Q12772); assay: In vitro assay SREBP-2: PathHunter U2OS SREBP-2 Nuclear Translocation Cell Line, U18666A-stimulated; type: cell-based; details: PathHunter U2OS SREBP-2 nuclear translocation cells, U18666A 10 μM, overnight (16 hours)
[2] = biological target: LXRβ (Homo sapiens (Human), UniProt P55055); assay: In vitro assay LXRβ: PathHunter NHR CHO cells, LXRβ / Steroid Receptor Co-activator Peptide enzyme fragment complementation; type: cell-based; details: PathHunter NHR CHO cells, full-length human LXRβ and SRCP, chemiluminescent signal; read-out: LXRβ PPI
LXRβ, sequence (P55055 whole entry, the tested form may be a part): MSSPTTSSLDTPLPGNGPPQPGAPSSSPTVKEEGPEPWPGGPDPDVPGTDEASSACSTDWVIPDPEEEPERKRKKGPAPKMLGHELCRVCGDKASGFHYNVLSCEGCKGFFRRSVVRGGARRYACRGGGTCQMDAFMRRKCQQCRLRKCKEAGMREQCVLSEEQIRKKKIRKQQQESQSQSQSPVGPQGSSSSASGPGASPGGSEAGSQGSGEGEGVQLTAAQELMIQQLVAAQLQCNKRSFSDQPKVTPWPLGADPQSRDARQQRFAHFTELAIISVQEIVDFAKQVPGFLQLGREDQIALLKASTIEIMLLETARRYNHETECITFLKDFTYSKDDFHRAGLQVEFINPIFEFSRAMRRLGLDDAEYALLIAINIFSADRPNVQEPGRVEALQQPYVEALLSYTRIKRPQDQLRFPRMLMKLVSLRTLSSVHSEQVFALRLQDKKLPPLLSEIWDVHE
Procedure, shortened: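 Co-activator recruitment measured by chemiluminescence after signal generation. The CHO line carries full-length human LXRβ tagged with ProLink and an SRCP–enzyme acceptor fusion in the nucleus; cells sat overnight at 37° C before testing, in charcoal-dextran filtered serum medium with 1% final vehicle.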

| SMILES | IC50 [1] [µM] | EC50 [2] [µM] |
| --- | --- | --- |
| C[C@H](COC(=O)N(C)CCO)[C@H]1CC[C@H]2[C@@H]3CC=C4C[C@@H](O)CC[C@]4(C)[C@H]3CC[C@]12C [Example 350, (2S)-2-[(1R,3aS,3bS,7S,9aR,9bS,11aS)-7-hydroxy-9a,11a-dimethyl-1H,2H,3H,3aH,3bH,4H,6H,7H,8H,9H,9aH,9bH,10H,11H,11aH-cyclopenta[a]phenanthren-1-yl]propyl N-(2-hydroxyethyl)-N-methylcarbamate] | 0.25 to 1 | > 10 |
| C[C@H](CCC(=O)N(C)C)[C@H]1CC[C@H]2[C@@H]3CC=C4C[C@@H](O)CC[C@]4(C)[C@H]3[C@@H](O)C[C@]12C [Example 157, (R)-4-((3S,8S,9S,10R,11S,13R,14S,17R)-3,11-dihydroxy-10,13-dimethyl-2,3,4,7,8,9,10,11,12,13,14,15,16,17-tetradecahydro-1H-cyclopenta[a]phenanthren-17-yl)-N, N-dimethylpentanamide] | 0.25 to 1 | 0.25 to 1 |
| C[C@H](Oc1cccnc1)[C@H]1CC[C@H]2[C@@H]3CC=C4C[C@@H](O)CC[C@]4(C)[C@H]3CC[C@]12C [Example 380, (3S,8S,9S,10R,13S,14S,17S)-10,13-dimethyl-17-((S)-1-(pyridin-3-yloxy)ethyl)-2,3,4,7,8,9,10,11,12,13,14,15,16,17-tetradecahydro-1H-cyclopenta[a]phenanthren-3-ol] | < 0.25 | > 10 |
| COc1ncnc(N2CCN(C(=O)CC[C@@H](C)[C@H]3CC[C@H]4[C@@H]5CC=C6C[C@@H](O)CC[C@]6(C)[C@H]5CC[C@]34C)CC2)c1OC [Example 618, (R)-1-(4-(5,6-dimethoxypyrimidin-4-yl)piperazin-1-yl)-4-((3S,8S,9S,10R,13R,14S,17R)-3-hydroxy-10,13-dimethyl-2,3,4,7,8,9,10,11,12,13,14,15,16,17-tetradecahydro-1H-cyclopenta[a]phenanthren-17-yl)pentan-1-one] | < 0.25 | > 10 |
| Cc1ccc(CC[C@@H](C)[C@H]2CC[C@H]3[C@@H]4CC=C5C[C@@H](O)CC[C@]5(C)[C@H]4CC[C@]23C)nc1 [Example 131, (3S,8S,9S,10R,13R,14S,17R)-10,13-dimethyl-17-((R)-4-(5-methylpyridin-2-yl)butan-2-yl)-2,3,4,7,8,9,10,11,12,13,14,15,16,17-tetradecahydro-1H-cyclopenta[a]phenanthren-3-ol] | 0.25 to 1 | > 10 |
| C[C@H](CCc1ccccn1)[C@H]1CC[C@H]2[C@@H]3CC=C4C[C@@](C)(O)CC[C@]4(C)[C@H]3CC[C@]12C [Example 369, (3S,8S,9S,10R,13R,14S,17R)-3,10,13-trimethyl-17-((R)-4-(pyridin-2-yl)butan-2-yl)-2,3,4,7,8,9,10,11,12,13,14,15,16,17-tetradecahydro-1H-cyclopenta[a]phenanthren-3-ol] | 0.25 to 1 | 1 to 10 |
| Cc1nnc(C(=O)N2CCN(C(=O)CC[C@@H](C)[C@H]3CC[C@H]4[C@@H]5CC=C6C[C@@H](O)CC[C@]6(C)[C@H]5CC[C@]34C)CC2)o1 [Example 540, (R)-4-((3S,8S,9S,10R,13R,14S,17R)-3-hydroxy-10,13-dimethyl-2,3,4,7,8,9,10,11,12,13,14,15,16,17-tetradecahydro-1H-cyclopenta[a]phenanthren-17-yl)-1-(4-(5-methyl-1,3,4-oxadiazole-2-carbonyl)piperazin-1-yl)pentan-1-one] | < 0.25 | > 10 |
| C[C@H](COC(=O)N1CCN(C(=O)c2cnn(C)c2)CC1)[C@H]1CC[C@H]2[C@@H]3CC=C4C[C@@H](O)CC[C@]4(C)[C@H]3CC[C@]12C [Example 596, (S)-2-((3S,8S,9S,10R,13S,14S,17R)-3-hydroxy-10,13-dimethyl-2,3,4,7,8,9,10,11,12,13,14,15,16,17-tetradecahydro-1H-cyclopenta[a]phenanthren-17-yl)propyl 4-(1-methyl-1H-pyrazole-4-carbonyl)piperazine-1-carboxylate] | < 0.25 | > 10 |
